In brackets after ≈: the same amount, converted by molar mass.
What was measured:
Caco-2 = test: Cytotoxicity in human Caco2 cells after 72 hrs by MTT assay; type: functional, cell-based; conditions: Caco-2, 72 h
A-375 = test: Cytotoxicity in human A375 cells; type: functional, cell-based
K562 [1] = test: Cytotoxicity in human K562 cells by SRB assay; type: functional, cell-based
CCRF-CEM = test: Cytotoxicity in human CCRF-CEM cells by resazurin reduction assay; type: functional, cell-based
K562 [2] = test: Cytotoxicity in human K562 cells after 24 hrs by trypan blue exclusion assay; type: functional, cell-based; conditions: K562, 24 h
[3] = Inhibition of nuclear factor-kappa-B (unknown origin) expressed in human K562 cells pre-incubated for 2 hrs followed by TNFalpha stimulation for 6 hrs by luciferase reporter gene assay; type: cell-based

For `O=c1[nH]cc(F)c(=O)[nH]1` [FLUOROURACIL], the IC50 (Caco-2) was 60 µM.

Work on `O=c1c(O)c(-c2ccccc2)oc2ccccc12` [FLAVONOL] yielded an IC50 (Caco-2) of 42.1 µM.

`O=c1cc(-c2ccccc2)oc2cc(O)cc(O)c12` [CHRYSIN] gave an IC50 (Caco-2) of 9.5 µM.

With `O=c1c(O)c(-c2ccc(O)cc2)oc2cc(O)cc(O)c12` [KAEMPFEROL] the IC50 (A-375) was 0.012 µg/mL (≈ 0.0421 µM).

In the case of `O=C1c2ccc(O)cc2O[C@H](c2ccc(O)c(O)c2)[C@H]1O` [FUSTIN], the IC50 (K562 [1]) is reported as greater than 100 µg/mL.

`COc1cc(O)cc(O)c1C(=O)/C=C/c1ccccc1` [CARDAMOMIN] gave an IC50 (CCRF-CEM) of no more than 10 µM.

Work on `C[C@H]1O[C@H](Oc2c(-c3ccc(O)cc3)oc3cc(O)cc(O)c3c2=O)[C@@H](O)[C@@H](O)[C@@H]1O` (single isomer, unassigned) [KAEMPFEROL-3-O-RHAMNOSIDE] yielded an IC50 (K562 [2]) of 15.2 µM and an IC50 [3] of 4.1 µM.

Molecule `C[C@@H]1O[C@@H](Oc2c(-c3cc(O)c(O)c(O)c3)oc3cc(O)cc(O)c3c2=O)[C@H](O)[C@H](OC(=O)c2cc(O)c(O)c(O)c2)[C@H]1O` has an IC50 (K562 [1]) of 30.5 µg/mL.

Molecule `COc1cc(O)cc(OC)c1C(=O)/C=C/c1ccccc1` has an IC50 (CCRF-CEM) of no more than 10 µM.

With `O=c1c(O)c(-c2ccc(O)c(O)c2)oc2cc(O)cc(O)c12` [QUERCETIN] the IC50 (A-375) was 0.00154 µg/mL (≈ 0.0051 µM).

Molecule `CC1=Cc2c(C(C)C)ccc(C)c2C(=O)C1=O` has an IC50 (K562 [1]) of 1.45 µM.

`O=c1cc(-c2ccccc2)oc2ccccc12` [FLAVONE] showed an IC50 (Caco-2) of 21 µM.

`COc1cc(O)c(OC)c(O)c1C(=O)/C=C/c1ccccc1` showed an IC50 (CCRF-CEM) of no more than 10 µM.

With `COc1ccc([C@@H]2CC(=O)c3c(O)cc(O)cc3O2)cc1O` [HESPERETIN] the IC50 (Caco-2) was 66.7 µM.

Source: ChEMBL document CHEMBL4270499, “Recent discoveries of anticancer flavonoids” (Eur J Med Chem, 2017)
